According to the supplement of paper PMC10307832:

How the values were obtained:
Assay in all cases: relative viability (nuclei count vs DMSO), 5 days (fraction); higher = more cells survive
GSK-J4 + Pictilisib = compound: CCOC(=O)CCNc1cc(N2CCc3ccccc3CC2)nc(-c2ccccn2)n1 [GSK-J4] + CS(=O)(=O)N1CCN(Cc2cc3nc(-c4cccc5[nH]ncc45)nc(N4CCOCC4)c3s2)CC1 [Pictilisib] (partner 1 µM)
Outline: (§1)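 Lung cancer cell lines were pin-tool dosed in 1536-well plates on the day after seeding, with either a lone drug or a fixed anchor-drug dose plus five library-drug doses (not always all listed) in √10 steps. Nuclei were counted on 4× images after 5 days. Relative viability is the ratio of treated-well to vehicle-well nuclei counts, with each value a median of duplicate plates.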

GSK-J4 + Crizotinib = compound: CCOC(=O)CCNc1cc(N2CCc3ccccc3CC2)nc(-c2ccccn2)n1 [GSK-J4] + C[C@@H](Oc1cc(-c2cnn(C3CCNCC3)c2)cnc1N)c1c(Cl)ccc(F)c1Cl [Crizotinib] (partner 1 µM)
Outline: as §1

AZ3146 + Trametinib = compound: CN1CCC(CC1)OC2=CC(=C(C=C2)NC3=NC=C4C(=N3)N(C(=O)N4C)C5CCCC5)OC [AZ3146] + CC(=O)Nc1cccc(-n2c(=O)n(C3CC3)c(=O)c3c(Nc4ccc(I)cc4F)n(C)c(=O)c(C)c32)c1 [Trametinib] (partner 0.02 µM)
Outline: as §1

AZ3146 + Bortezomib = compound: CN1CCC(CC1)OC2=CC(=C(C=C2)NC3=NC=C4C(=N3)N(C(=O)N4C)C5CCCC5)OC [AZ3146] + CC(C)C[C@H](NC(=O)[C@H](Cc1ccccc1)NC(=O)c1cnccn1)B(O)O [Bortezomib] (partner 0.002 µM)
Outline: as §1

UMC-11
relative viability (GSK-J4 + Pictilisib; first compound 0.5 µM): 0.739 | relative viability (GSK-J4 + Pictilisib; first compound 1.581 µM): 0.527 | relative viability (GSK-J4 + Pictilisib; first compound 5 µM): 0.499 | relative viability (GSK-J4 + Pictilisib; first compound 15.81 µM): 0.9 | relative viability (GSK-J4 + Pictilisib; first compound 50 µM): 0.256 | relative viability (GSK-J4 + Crizotinib; first compound 0.5 µM): 0.601 | relative viability (GSK-J4 + Crizotinib; first compound 1.581 µM): 0.557 | relative viability (GSK-J4 + Crizotinib; first compound 5 µM): 0.702 | relative viability (GSK-J4 + Crizotinib; first compound 15.81 µM): 0.666 | relative viability (GSK-J4 + Crizotinib; first compound 50 µM): 0.509 | relative viability (AZ3146 + Trametinib; first compound 0.08 µM): 0.575 | relative viability (AZ3146 + Trametinib; first compound 0.253 µM): 0.725 | relative viability (AZ3146 + Trametinib; first compound 0.8 µM): 0.629 | relative viability (AZ3146 + Trametinib; first compound 2.53 µM): 0.626 | relative viability (AZ3146 + Trametinib; first compound 8 µM): 0.313 | relative viability (AZ3146 + Bortezomib; first compound 0.08 µM): 0.814 | relative viability (AZ3146 + Bortezomib; first compound 0.253 µM): 0.661 | relative viability (AZ3146 + Bortezomib; first compound 0.8 µM): 0.598 | relative viability (AZ3146 + Bortezomib; first compound 2.53 µM): 0.675 | relative viability (AZ3146 + Bortezomib; first compound 8 µM): 0.635
